Assay results taken from US20140288052A1, “SUBSTITUTED BICYCLIC AZA-HETEROCYCLES AND ANALOGUES AS SIRTUIN MODULATORS” (GlaxoSmithKline, LLC, priority 2011, published 2014).

What was measured:
SIRT1 [1] = biological target: T1, SIRT1 (Homo sapiens, UniProt Q96EB6); experiment: TAMRA based mass spectrometry assay of SIRT1 deacetylase activation; format: biochemical; conditions: TAMRA peptide substrate; for TAMRA EC1.5 (μM): concentration that results in 150% activation of SIRT1; for TAMRA % Fold Act: percent maximum fold activation relative to control (100%)
T1 sequence (Q96EB6 1-747): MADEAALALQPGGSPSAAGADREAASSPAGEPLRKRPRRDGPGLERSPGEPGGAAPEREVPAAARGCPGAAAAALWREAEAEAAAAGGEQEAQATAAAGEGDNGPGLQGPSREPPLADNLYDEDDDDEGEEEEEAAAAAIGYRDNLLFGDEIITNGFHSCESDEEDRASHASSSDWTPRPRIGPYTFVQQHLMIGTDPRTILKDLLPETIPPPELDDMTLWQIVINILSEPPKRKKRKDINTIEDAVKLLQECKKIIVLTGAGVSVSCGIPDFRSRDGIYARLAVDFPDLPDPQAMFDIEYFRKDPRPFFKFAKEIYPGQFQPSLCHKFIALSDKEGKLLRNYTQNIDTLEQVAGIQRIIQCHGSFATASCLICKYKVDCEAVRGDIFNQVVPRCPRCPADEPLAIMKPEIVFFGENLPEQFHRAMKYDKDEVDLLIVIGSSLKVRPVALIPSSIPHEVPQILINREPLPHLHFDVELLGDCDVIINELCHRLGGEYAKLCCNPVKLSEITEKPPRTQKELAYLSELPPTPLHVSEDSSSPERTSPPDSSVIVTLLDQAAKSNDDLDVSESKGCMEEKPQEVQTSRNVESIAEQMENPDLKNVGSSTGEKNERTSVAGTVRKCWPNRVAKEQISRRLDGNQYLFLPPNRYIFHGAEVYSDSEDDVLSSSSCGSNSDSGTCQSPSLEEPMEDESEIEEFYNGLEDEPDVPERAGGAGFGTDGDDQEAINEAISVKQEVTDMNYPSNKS
Description: (§1) Mass spectrometry based assays were used to identify modulators of SIRT1 activity. The TAMRA based assay utilized a peptide having 20 amino acid residues as follows: Ac-EE-K(biotin)-GQSTSSHSK(Ac)NleSTEG-K(5TMR)-EE-NH2 (SEQ ID NO: 1), wherein K(Ac) is an acetylated lysine residue and Nle is a norleucine. The peptide was labeled with the fluorophore 5TMR (excitation 540 nm/emission 580 nm) at the C-terminus. The sequence of the peptide substrate was based on p53 with several modifications. In addition, the methionine residue naturally present in the sequence was replaced with the norleucine because the methionine may be susceptible to oxidation during synthesis and purification. The Trp based assay utilized a peptide having an amino acid residues as follows: Ac-R-H-K-K(Ac)-W-NH2 (SEQ ID NO: 2).
The TAMRA based mass spectrometry assay was conducted as follows: 0.5 μM peptide substrate and 120 μM βNAD^+ was incubated with 10 nM SIRT1 for 25 minutes at 25° C. in a reaction buffer (50 mM Tris-acetate pH 8, 137 mM NaCl, 2.7 mM KCl, 1 mM MgCl2, 5 mM DTT, 0.05% BSA). The SIRT1 protein was obtained by cloning the SirT1 gene into a T7-promoter containing vector, which was then transformed and expressed in BL21(DE3) bacterial cells. Test compound was added at varying concentrations to this reaction mixture and the resulting reactions were monitored. After the 25 minute incubation with SIRT1, 10 μL of 10% formic acid was added to stop the reaction. The resulting reactions were sealed and frozen for later mass spec analysis. Determination of the amount of deacetylated substrate peptide formed (or, alternatively, the amount of O-acetyl-ADP-ribose (OAADPR) generated) by the sirtuin-mediated NAD-dependent deacetylation reaction allowed for the precise measurement of relative SIRT1 activity in the presence of varying concentrations of the test compound versus control reactions lacking the test compound.
(§2) A control for inhibition of sirtuin activity was conducted by adding 1 μL of 500 mM nicotinamide as a negative control at the start of the reaction (e.g., permits determination of maximum sirtuin inhibition). A control for activation of sirtuin activity was conducted using 10 nM of sirtuin protein, with 1 μL of DMSO in place of compound, to determine the amount of deacetylation of the substrate at a given time point within the linear range of the assay. This time point was the same as that used for test compounds and, within the linear range, the endpoint represents a change in velocity. For the above assay, SIRT1 protein was expressed and purified as follows. The SirT1 gene was cloned into a T7-promoter containing vector and transformed into BL21(DE3). The protein was expressed by induction with 1 mM IPTG as an N-terminal His-tag fusion protein at 18° C. overnight and harvested at 30,000×g. Cells were lysed with lysozyme in lysis buffer (50 mM Tris-HCl, 2 mM Tris[2-carboxyethyl] phosphine (TCEP), 10 μM ZnCl2, 200 mM NaCl) and further treated with sonication for 10 min for complete lysis. The protein was purified over a Ni-NTA column (Amersham) and fractions containing pure protein were pooled, concentrated and run over a sizing column (Sephadex S200 26/60 global). The peak containing soluble protein was collected and run on an Ion-exchange column (MonoQ). Gradient elution (200 mM-500 mM NaCl) yielded pure protein. This protein was concentrated and dialyzed against dialysis buffer (20 mM Tris-HCl, 2 mM TCEP) overnight. The protein was aliquoted and frozen at −80° C. until further use.
Sirtuin-modulating compounds of Formula (I) that activated SIRT1 were identified using the assay described above and are shown below in Table 1. The EC1.5 values represent the concentration of test compounds that result in 150% activation of SIRT1. The EC1.5 values for the activating compounds of Formula (I) are represented by A (EC1.5<1 μM), B (EC1.5 1−25 μM), C (EC1.5>25 μM). […]

SIRT1 [2] = biological target: T1, SIRT1; experiment: Trp mass spectrometry assay of SIRT1 deacetylase activation; format: biochemical; conditions: Trp peptide substrate; for TRP EC1.5 (μM): concentration that results in 150% activation of SIRT1; for TRP % Fold Act: percent maximum fold activation relative to control (100%)
Description: as §1
The Trp mass spectrometry assay was conducted as follows. 0.5 μM peptide substrate and 120 μM βNAD^+ were incubated with 10 nM SIRT1 for 25 minutes at 25° C. in a reaction buffer (50 mM HEPES pH 7.5, […], 1 mM DTT, 0.05% BSA). The SIRT1 protein was obtained by cloning the SirT1 gene into a T7-promoter containing vector, which was then expressed in BL21(DE3) bacterial cells and purified as described in further detail below. Test compound was added at varying concentrations to this reaction mixture and the resulting reactions were monitored. After the 25 minute incubation with SIRT1, 10 μL of 10% formic acid was added to stop the reaction. The resulting reactions were sealed and frozen for later mass spec analysis. The relative SIRT1 activity was then determined by measuring the amount of O-acetyl-ADP-ribose (OAADPR) formed (or, alternatively, the amount of deacetylated Trp peptide generated) by the NAD-dependent sirtuin deacetylation reaction in the presence of varying concentrations of the test compound versus control reactions lacking the test compound. The degree to which the test agent activated deacetylation by SIRT1 was expressed as EC1.5 (i.e., the concentration of compound required to increase SIRT1 activity by 50% over the control lacking test compound), and Percent Maximum Activation (i.e., the maximum activity relative to control (100%) obtained for the test compound).
as §2
Sirtuin-modulating compounds of Formula (I) that activated SIRT1 were identified using the assay described above and are shown below in Table 1. […]

| SMILES | TAMRA EC1.5 (μM) (SIRT1 [1]) | TAMRA % Fold Act (SIRT1 [1]) | TRP EC1.5 (μM) (SIRT1 [2]) | TRP % Fold Act (SIRT1 [2]) |
| --- | --- | --- | --- | --- |
| Cc1cnc(NC(=O)c2ccnn3cc(-c4cccc(F)c4)nc23)s1 [Compound 5] | C (EC1.5>25 μM) | B (Fold Activation<350%) | C (EC1.5>25 μM) | B (Fold Activation<350%) |
| O=C(Nc1nccs1)c1ccnn2cc(-c3ccccc3C(F)(F)F)nc12 [Compound 13] | A (EC1.5<1 μM) | B (Fold Activation<350%) | A (EC1.5<1 μM) | B (Fold Activation<350%) |
| Cc1cnc(NC(=O)c2ccnn3cc(-c4ccccc4C(F)(F)F)nc23)s1 [Compound 14] | A (EC1.5<1 μM) | B (Fold Activation<350%) | C (EC1.5>25 μM) | B (Fold Activation<350%) |
| O=C(Nc1cccc(N2CCOCC2)n1)c1ccnn2cc(-c3ccccc3C(F)(F)F)nc12 [Compound 16] | A (EC1.5<1 μM) | A (Fold activation≧350%) | C (EC1.5>25 μM) | B (Fold Activation<350%) |
| O=C(Nc1nccs1)c1ccnn2cc(-c3cccc(C(F)(F)F)c3)nc12 [Compound 17] | C (EC1.5>25 μM) | B (Fold Activation<350%) | C (EC1.5>25 μM) | B (Fold Activation<350%) |
| Cc1cnc(NC(=O)c2ccnn3cc(-c4cccc(C(F)(F)F)c4)nc23)s1 [Compound 18] | C (EC1.5>25 μM) | B (Fold Activation<350%) | C (EC1.5>25 μM) | B (Fold Activation<350%) |
| O=C(Nc1nccs1)c1ccnn2cc(-c3cccc(Cl)c3)nc12 [Compound 21] | C (EC1.5>25 μM) | B (Fold Activation<350%) | C (EC1.5>25 μM) | B (Fold Activation<350%) |
| O=C(Nc1ccccn1)c1cc(N2CCOCC2)nn2cc(-c3cccc(F)c3)nc12 [Compound 27] | C (EC1.5>25 μM) | B (Fold Activation<350%) | C (EC1.5>25 μM) | B (Fold Activation<350%) |
| O=C(Nc1cccnc1)c1cc(N2CCOCC2)nn2cc(-c3cccc(F)c3)nc12 [Compound 28] | C (EC1.5>25 μM) | B (Fold Activation<350%) | C (EC1.5>25 μM) | B (Fold Activation<350%) |
| O=C(Nc1ccncc1)c1cc(N2CCOCC2)nn2cc(-c3cccc(F)c3)nc12 [Compound 29] | C (EC1.5>25 μM) | B (Fold Activation<350%) | C (EC1.5>25 μM) | B (Fold Activation<350%) |

Second part, the molecule after the results:

| TAMRA EC1.5 (μM) (SIRT1 [1]) | TAMRA % Fold Act (SIRT1 [1]) | TRP EC1.5 (μM) (SIRT1 [2]) | TRP % Fold Act (SIRT1 [2]) | SMILES |
| --- | --- | --- | --- | --- |
| C (EC1.5>25 μM) | B (Fold Activation<350%) | C (EC1.5>25 μM) | B (Fold Activation<350%) | O=C(Nc1nccs1)c1cc(N2CCOCC2)nn2cc(-c3cccc(Cl)c3)nc12 [Compound 30] |
| C (EC1.5>25 μM) | B (Fold Activation<350%) | C (EC1.5>25 μM) | B (Fold Activation<350%) | O=C(Nc1ccccn1)c1cc(N2CCOCC2)nn2cc(-c3cccc(Cl)c3)nc12 [Compound 32] |
| C (EC1.5>25 μM) | B (Fold Activation<350%) | C (EC1.5>25 μM) | B (Fold Activation<350%) | O=C(Nc1cccnc1)c1cc(N2CCOCC2)nn2cc(-c3cccc(Cl)c3)nc12 [Compound 33] |
| C (EC1.5>25 μM) | B (Fold Activation<350%) | C (EC1.5>25 μM) | B (Fold Activation<350%) | O=C(Nc1ccccn1)c1cc(N2CCOCC2)nn2cc(-c3ccccc3Cl)nc12 [Compound 36] |
| C (EC1.5>25 μM) | B (Fold Activation<350%) | C (EC1.5>25 μM) | B (Fold Activation<350%) | O=C(Nc1nccs1)c1cc(N2CCOCC2)nn2cc(-c3ccccc3F)nc12 [Compound 37] |
| C (EC1.5>25 μM) | B (Fold Activation<350%) | C (EC1.5>25 μM) | B (Fold Activation<350%) | O=C(Nc1ccccn1)c1cc(N2CCOCC2)nn2cc(-c3ccccc3F)nc12 [Compound 39] |
